Each compound was assayed against T1, human p38 kinase alpha (Homo sapiens, UniProt Q16539) (assay: p38 kinase in vitro assay, phosphorylation of biotinylated PHAS-I with 32P-ATP). Settings: @ 1.0 uM.
T1 construct: GST (N, cleaved yes); made in house; host or cells: E. coli DH10B
T1 sequence (Q16539 whole entry): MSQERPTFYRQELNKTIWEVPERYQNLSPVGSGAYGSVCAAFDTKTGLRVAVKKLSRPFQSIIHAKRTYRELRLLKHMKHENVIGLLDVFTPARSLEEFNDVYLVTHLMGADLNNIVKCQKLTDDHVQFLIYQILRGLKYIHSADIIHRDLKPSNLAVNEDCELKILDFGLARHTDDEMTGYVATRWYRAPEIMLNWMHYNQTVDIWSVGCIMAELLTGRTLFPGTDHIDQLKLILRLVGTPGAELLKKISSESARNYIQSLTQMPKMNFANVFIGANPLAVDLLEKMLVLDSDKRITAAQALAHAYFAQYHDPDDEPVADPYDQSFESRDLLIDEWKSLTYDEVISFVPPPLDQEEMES
Type: biochemical
For `O=C(NCCCc1[nH]nc(-c2ccc(F)cc2)c1-c1ccncc1)C1CCCC1` [Example B-1181], the “P38 alpha kinase % inhib @ conc. (uM)” value was 79.0% @.
In the case of `O=C(NCCCc1[nH]nc(-c2ccc(F)cc2)c1-c1ccncc1)c1cccnc1` [Example B-1182], the “P38 alpha kinase % inhib @ conc. (uM)” value is reported as 72.0% @.
For `O=C(NCCCc1[nH]nc(-c2ccc(F)cc2)c1-c1ccncc1)c1ccncc1` [Example B-1183], the “P38 alpha kinase % inhib @ conc. (uM)” value was 77.0% @.
For `O=C(NCCCc1[nH]nc(-c2ccc(F)cc2)c1-c1ccncc1)c1ccccn1` [Example B-1184], the “P38 alpha kinase % inhib @ conc. (uM)” value was 69.0% @.
`CC(Oc1ccccc1)C(=O)NCCCc1[nH]nc(-c2ccc(F)cc2)c1-c1ccncc1` (stereo not shown) [Example B-1186] was tested, and the “P38 alpha kinase % inhib @ conc. (uM)” value was 83.0% @.
For `CC(C)COC(=O)NCCCc1[nH]nc(-c2ccc(F)cc2)c1-c1ccncc1` [Example B-1187], the “P38 alpha kinase % inhib @ conc. (uM)” value was 76.0% @.
`O=C(NCCCc1[nH]nc(-c2ccc(F)cc2)c1-c1ccncc1)c1cnc2ccccc2n1` [Example B-1189] was tested, and the “P38 alpha kinase % inhib @ conc. (uM)” value was 68.0% @.
`O=S(=O)(NCCCc1[nH]nc(-c2ccc(F)cc2)c1-c1ccncc1)c1ccc(F)cc1` [Example B-1190] was tested, and the “P38 alpha kinase % inhib @ conc. (uM)” value was 78.0% @.
For `O=S(=O)(NCCCc1[nH]nc(-c2ccc(F)cc2)c1-c1ccncc1)c1ccccc1` [Example B-1191], the “P38 alpha kinase % inhib @ conc. (uM)” value was 74.0% @.
With `CC(C)S(=O)(=O)NCCCc1[nH]nc(-c2ccc(F)cc2)c1-c1ccncc1` [Example B-1192] the “P38 alpha kinase % inhib @ conc. (uM)” value was 84.0% @.
`O=S(=O)(C=Cc1ccccc1)NCCCc1[nH]nc(-c2ccc(F)cc2)c1-c1ccncc1` [Example B-1193] was tested, and the “P38 alpha kinase % inhib @ conc. (uM)” value was 69.0% @.
`O=S(=O)(Cc1ccccc1)NCCCc1[nH]nc(-c2ccc(F)cc2)c1-c1ccncc1` [Example B-1194] was tested, and the “P38 alpha kinase % inhib @ conc. (uM)” value was 87.0% @.
`O=S(=O)(NCCCc1[nH]nc(-c2ccc(F)cc2)c1-c1ccncc1)c1ccc(F)cc1F` [Example B-1195] was tested, and the “P38 alpha kinase % inhib @ conc. (uM)” value was 52.0% @.
With `O=S(=O)(NCCCc1[nH]nc(-c2ccc(F)cc2)c1-c1ccncc1)C(F)(F)F` [Example B-1196] the “P38 alpha kinase % inhib @ conc. (uM)” value was 74.0% @.
For `O=S(=O)(NCCCc1[nH]nc(-c2ccc(F)cc2)c1-c1ccncc1)c1ccccc1F` [Example B-1197], the “P38 alpha kinase % inhib @ conc.” value was 77.0% @.
With `CCCS(=O)(=O)NCCCc1[nH]nc(-c2ccc(F)cc2)c1-c1ccncc1` [Example B-1198] the “P38 alpha kinase % inhib @ conc.” value was 92.0% @.
For `CCCCS(=O)(=O)NCCCc1[nH]nc(-c2ccc(F)cc2)c1-c1ccncc1` [Example B-1199], the “P38 alpha kinase % inhib @ conc.” value was 87.0% @.
In the case of `CCS(=O)(=O)NCCCc1[nH]nc(-c2ccc(F)cc2)c1-c1ccncc1` [Example B-1200], the “P38 alpha kinase % inhib @ conc.” value is reported as 95.0% @.
In the case of `CS(=O)(=O)NCCCc1[nH]nc(-c2ccc(F)cc2)c1-c1ccncc1` [Example B-1201], the “P38 alpha kinase % inhib @ conc.” value is reported as 84.0% @.
With `COc1ccc(S(=O)(=O)NCCCc2[nH]nc(-c3ccc(F)cc3)c2-c2ccncc2)cc1` [Example B-1202] the “P38 alpha kinase % inhib @ conc.” value was 71.0% @.
In the case of `O=S(=O)(NCCCc1[nH]nc(-c2ccc(F)cc2)c1-c1ccncc1)c1cccs1` [Example B-1203], the “P38 alpha kinase % inhib @ conc.” value is reported as 84.0% @.
`Cc1ccc(S(=O)(=O)NCCCc2[nH]nc(-c3ccc(F)cc3)c2-c2ccncc2)cc1` [Example B-1204] was tested, and the “P38 alpha kinase % inhib @ conc.” value was 68.0% @.
`COc1ccc(S(=O)(=O)NCCCc2[nH]nc(-c3ccc(F)cc3)c2-c2ccncc2)cc1OC` [Example B-1205] was tested, and the “P38 alpha kinase % inhib @ conc.” value was 74.0% @.
For `CC(C)NC(=O)NCCCc1[nH]nc(-c2ccc(F)cc2)c1-c1ccncc1` [Example B-1206], the “P38 alpha kinase % inhib @ conc.” value was 81.0% @.
With `NC(=O)NCCCc1[nH]nc(-c2ccc(F)cc2)c1-c1ccncc1` [Example B-1207] the “P38 alpha kinase % inhib @ conc.” value was 90.0% @.
For `O=C(NCCCc1[nH]nc(-c2ccc(F)cc2)c1-c1ccncc1)NCc1ccccc1` [Example B-1208], the “P38 alpha kinase % inhib @ conc.” value was 82.0% @.
In the case of `O=C(NCCCc1[nH]nc(-c2ccc(F)cc2)c1-c1ccncc1)N1CCCC1` [Example B-1209], the “P38 alpha kinase % inhib @ conc.” value is reported as 86.0% @.
In the case of `O=C(NCCCc1[nH]nc(-c2ccc(F)cc2)c1-c1ccncc1)N1CCOCC1` [Example B-1210], the “P38 alpha kinase % inhib @ conc.” value is reported as 82.0% @.
In the case of `O=C(NCCCc1[nH]nc(-c2ccc(F)cc2)c1-c1ccncc1)Nc1ccc(F)cc1` [Example B-1211], the “P38 alpha kinase % inhib @ conc.” value is reported as 88.0% @.
`CN(C)C(=O)NCCCc1[nH]nc(-c2ccc(F)cc2)c1-c1ccncc1` [Example B-1212] was tested, and the “P38 alpha kinase % inhib @ conc.” value was 90.0% @.
`CNC(=O)NCCCc1[nH]nc(-c2ccc(F)cc2)c1-c1ccncc1` [Example B-1213] was tested, and the “P38 alpha kinase % inhib @ conc.” value was 84.0% @.
`CN(C(=O)NCCCc1[nH]nc(-c2ccc(F)cc2)c1-c1ccncc1)c1ccccc1` [Example B-1214] was tested, and the “P38 alpha kinase % inhib @ conc.” value was 76.0% @.
In the case of `O=C(NCCCc1[nH]nc(-c2ccc(F)cc2)c1-c1ccncc1)Nc1ccccc1F` [Example B-1215], the “P38 alpha kinase % inhib @ conc.” value is reported as 86.0% @.
For `Cc1cccc(C)c1NC(=O)NCCCc1[nH]nc(-c2ccc(F)cc2)c1-c1ccncc1` [Example B-1216], the “P38 alpha kinase % inhib @ conc.” value was 88.0% @.
With `C=CCNC(=O)NCCCc1[nH]nc(-c2ccc(F)cc2)c1-c1ccncc1` [Example B-1217] the “P38 alpha kinase % inhib @ conc.” value was 87.0% @.
For `CCCNC(=O)NCCCc1[nH]nc(-c2ccc(F)cc2)c1-c1ccncc1` [Example B-1218], the “P38 alpha kinase % inhib @ conc.” value was 88.0% @.
For `O=C(NCCCc1[nH]nc(-c2ccc(F)cc2)c1-c1ccncc1)Nc1ccccc1` [Example B-1220], the “P38 alpha kinase % inhib @ conc.” value was 81.0% @.
In the case of `O=C(NCCCc1[nH]nc(-c2ccc(F)cc2)c1-c1ccncc1)NCCc1ccccc1` [Example B-1221], the “P38 alpha kinase % inhib @ conc.” value is reported as 82.0% @.
With `COc1ccc(NC(=O)NCCCc2[nH]nc(-c3ccc(F)cc3)c2-c2ccncc2)cc1` [Example B-1224] the “P38 alpha kinase % inhib @ conc.” value was 82.0% @.
In the case of `CCN(CC)C(=O)NCCCc1[nH]nc(-c2ccc(F)cc2)c1-c1ccncc1` [Example B-1225], the “P38 alpha kinase % inhib @ conc.” value is reported as 89.0% @.
In the case of `CCNC(=O)NCCCc1[nH]nc(-c2ccc(F)cc2)c1-c1ccncc1` [Example B-1226], the “P38 alpha kinase % inhib @ conc.” value is reported as 89.0% @.
`COc1ccc(NC(=O)NCCCc2[nH]nc(-c3ccc(F)cc3)c2-c2ccncc2)c(OC)c1` [Example B-1227] was tested, and the “P38 alpha kinase % inhib @ conc.” value was 83.0% @.
In the case of `O=C(Cc1cccs1)NCCCc1[nH]nc(-c2ccc(F)cc2)c1-c1ccncc1` [Example B-1228], the “P38 alpha kinase % inhib @ conc.” value is reported as 90.0% @.
With `CC(C)(C)C(=O)NCCCc1[nH]nc(-c2ccc(F)cc2)c1-c1ccncc1` [Example B-1229] the “P38 alpha kinase % inhib @ conc.” value was 87.0% @.
`CCCOC(=O)NCCCc1[nH]nc(-c2ccc(F)cc2)c1-c1ccncc1` [Example B-1230] was tested, and the “P38 alpha kinase % inhib @ conc.” value was 90.0% @.
With `CCOC(=O)NCCCc1[nH]nc(-c2ccc(F)cc2)c1-c1ccncc1` [Example B-1231] the “P38 alpha kinase % inhib @ conc.” value was 94.0% @.
In the case of `O=C(NCCCc1[nH]nc(-c2ccc(F)cc2)c1-c1ccncc1)C1CCCN1` (stereo not shown) [Example B-1232], the “P38 alpha kinase % inhib @ conc.” value is reported as 81.0% @.
With `O=C(NCCCc1[nH]nc(-c2ccc(F)cc2)c1-c1ccncc1)[C@H]1CCCN1` [Example B-1233] the “P38 alpha kinase % inhib @ conc.” value was 85.0% @.
In the case of `CC(C)OC(=O)NCCCc1[nH]nc(-c2ccc(F)cc2)c1-c1ccncc1` [Example B-1234], the “P38 alpha kinase % inhib @ conc.” value is reported as 89.0% @.

Same assay, conditions: in vitro P38-alpha kinase; read-out: P38 alpha kinase IC50
Work on `CC(=O)Nc1nc(C)c(S(=O)(=O)NCCCc2[nH]nc(-c3ccc(F)cc3)c2-c2ccncc2)s1` [Example B-1235] yielded an IC50 of 40 nM.
`CC(=O)Nc1ccc(S(=O)(=O)NCCCc2[nH]nc(-c3ccc(F)cc3)c2-c2ccncc2)cc1` [Example B-1236] was tested, and the IC50 was 100 nM.
`O=S(=O)(NCCCc1[nH]nc(-c2ccc(F)cc2)c1-c1ccncc1)c1ccc(Br)cc1` [Example B-1237] gave an IC50 of 220 nM.
Work on `O=S(=O)(NCCCc1[nH]nc(-c2ccc(F)cc2)c1-c1ccncc1)c1ccc(Cl)cc1` [Example B-1238] yielded an IC50 of 140 nM.
`O=S(=O)(NCCCc1[nH]nc(-c2ccc(F)cc2)c1-c1ccncc1)c1cc(Cl)cc(Cl)c1O` [Example B-1241] showed an IC50 of 40 nM.
For `O=C(O)c1ccccc1S(=O)(=O)NCCCc1[nH]nc(-c2ccc(F)cc2)c1-c1ccncc1` [Example B-1242], the IC50 was 80 nM.
`O=S(=O)(NCCCc1[nH]nc(-c2ccc(F)cc2)c1-c1ccncc1)c1cc(Cl)ccc1Cl` [Example B-1243] gave an IC50 of 40 nM.
In the case of `Cc1cc(C)c(S(=O)(=O)NCCCc2[nH]nc(-c3ccc(F)cc3)c2-c2ccncc2)c(C)c1` [Example B-1244], the IC50 is reported as 260 nM.
Work on `O=S(=O)(NCCCc1[nH]nc(-c2ccc(F)cc2)c1-c1ccncc1)c1ccc2ccccc2c1` [Example B-1245] yielded an IC50 of 490 nM.
Compound `O=S(=O)(NCCCc1[nH]nc(-c2ccc(F)cc2)c1-c1ccncc1)c1cccc2ccccc12` [Example B-1246] has an IC50 of 270 nM.
For `O=[N+]([O-])c1ccccc1CS(=O)(=O)NCCCc1[nH]nc(-c2ccc(F)cc2)c1-c1ccncc1` [Example B-1247], the IC50 was < 100 nM.
With `O=S(=O)(NCCCc1[nH]nc(-c2ccc(F)cc2)c1-c1ccncc1)c1cccc2cccnc12` [Example B-1248] the IC50 was < 100 nM.
`CN(C)c1cccc2c(S(=O)(=O)NCCCc3[nH]nc(-c4ccc(F)cc4)c3-c3ccncc3)cccc12` [Example B-1249] was tested, and the IC50 was 240 nM.
Work on `CC(C)c1ccc(S(=O)(=O)NCCCc2[nH]nc(-c3ccc(F)cc3)c2-c2ccncc2)cc1` [Example B-1251] yielded an IC50 of 410 nM.
`Cc1c(Cl)cccc1S(=O)(=O)NCCCc1[nH]nc(-c2ccc(F)cc2)c1-c1ccncc1` [Example B-1252] was tested, and the IC50 was 170 nM.
`O=S(=O)(NCCCc1[nH]nc(-c2ccc(F)cc2)c1-c1ccncc1)c1ccc(Cl)cc1Cl` [Example B-1253] showed an IC50 of 150 nM.
`O=S(=O)(NCCCc1[nH]nc(-c2ccc(F)cc2)c1-c1ccncc1)c1ccc(F)cc1Cl` [Example B-1254] showed an IC50 of 160 nM.
With `N#Cc1ccccc1S(=O)(=O)NCCCc1[nH]nc(-c2ccc(F)cc2)c1-c1ccncc1` [Example B-1255] the IC50 was 12900 nM.
With `Cc1ccc(F)cc1S(=O)(=O)NCCCc1[nH]nc(-c2ccc(F)cc2)c1-c1ccncc1` [Example B-1256] the IC50 was 120 nM.
In the case of `O=S(=O)(NCCCc1[nH]nc(-c2ccc(F)cc2)c1-c1ccncc1)c1cc(Cl)c(Cl)s1` [Example B-1257], the IC50 is reported as 1480 nM.
In the case of `O=S(=O)(NCCCc1[nH]nc(-c2ccc(F)cc2)c1-c1ccncc1)c1c(Cl)cccc1Cl` [Example B-1258], the IC50 is reported as 70 nM.

From patent publication US6979686B1, “Substituted pyrazoles as p38 kinase inhibitors” (Pharmacia Corporation, priority 2001, dated 2005)
